Assay results published in patent EP4692081A1, “PREPARATION METHOD FOR NAPHTHOISOXAZOLE COMPOUND” (priority 2023, dated 2024).
Counter-ions that a name gives are not always drawn.

How the values were obtained:
Type in all cases: cell-based
[1] = molecular target: T1, IRAK4 (Homo sapiens, UniProt Q9NWZ3); assay: Target protein degradation effect in K562 IRAK4-HiBiT cells (Nano-Glo HiBiT luminescence); settings: incubated 16 to 18 hours
T1 construct: expressed in transfected cells; host or cells: K562 IRAK4-HiBiT cells
T1 sequence (Q9NWZ3 1-460): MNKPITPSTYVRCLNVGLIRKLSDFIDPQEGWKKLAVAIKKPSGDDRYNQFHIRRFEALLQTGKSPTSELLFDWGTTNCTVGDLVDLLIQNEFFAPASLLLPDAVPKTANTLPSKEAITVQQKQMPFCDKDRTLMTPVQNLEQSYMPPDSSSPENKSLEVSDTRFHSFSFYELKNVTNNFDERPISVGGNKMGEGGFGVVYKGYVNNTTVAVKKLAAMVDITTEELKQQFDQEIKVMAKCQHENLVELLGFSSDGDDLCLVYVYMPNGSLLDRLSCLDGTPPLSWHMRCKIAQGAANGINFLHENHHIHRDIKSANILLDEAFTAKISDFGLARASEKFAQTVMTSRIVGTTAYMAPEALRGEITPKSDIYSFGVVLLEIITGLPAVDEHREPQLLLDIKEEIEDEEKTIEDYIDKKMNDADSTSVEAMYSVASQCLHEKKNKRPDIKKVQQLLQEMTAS
Method: Objective: In this experiment, the degradation effect of the test compound on the target protein IRAK4 in K562 IRAK4-HiBiT cells was detected.
Cells: K562 IRAK4-HiBiT cells [formula]
Positive control: 1000 nM; negative control: 0.1% DMSO Table 1. Reagents and consumables
• 1. […] Cell seeding • (1) The cell culture medium was discarded, and the cells were washed once with DPBS, digested with trypsin, and counted to prepare a cell suspension of […]. • (2) 25 µL/well of cell suspension was added to the assay plate containing the test compound using Multidrop Combi at medium speed. • (3) The assay plate containing cells was returned to an incubator with 5% CO2 at 37°C and incubated for 16 to 18 hours.
• (1) 25 µL/well of assay reagent (NanoGlo lysis buffer + substrate + LgBit protein) was added to the assay plate using Multidrop Combi at high speed, and the plate was shaken for 10 minutes. • (2) The plate was centrifuged at 2000 rpm for 1 minute to remove air bubbles. • (3) The plate was read on Envision using US Luminescence detection method.
The degradation rate (DR) of the test compound was calculated using the following formula: DR (%) = (RLU vehicle control - RLU compound) / (RLU vehicle control - RLU positive control) * 100%, where the vehicle control served as the blank control. […]

[2] = molecular target: T2, IKZF1 (Homo sapiens, UniProt Q13422+Q96SW2); assay: In cell western analysis of IKZF1 protein expression level in MM.1S cells; settings: IKZF 1, MM.1S cells, 24 hours
T2 construct: expression levels of IKZF1 and IKZF3 proteins in MM.1S cells; host or cells: MM.1S cells
T2 sequence (Q13422 whole entry): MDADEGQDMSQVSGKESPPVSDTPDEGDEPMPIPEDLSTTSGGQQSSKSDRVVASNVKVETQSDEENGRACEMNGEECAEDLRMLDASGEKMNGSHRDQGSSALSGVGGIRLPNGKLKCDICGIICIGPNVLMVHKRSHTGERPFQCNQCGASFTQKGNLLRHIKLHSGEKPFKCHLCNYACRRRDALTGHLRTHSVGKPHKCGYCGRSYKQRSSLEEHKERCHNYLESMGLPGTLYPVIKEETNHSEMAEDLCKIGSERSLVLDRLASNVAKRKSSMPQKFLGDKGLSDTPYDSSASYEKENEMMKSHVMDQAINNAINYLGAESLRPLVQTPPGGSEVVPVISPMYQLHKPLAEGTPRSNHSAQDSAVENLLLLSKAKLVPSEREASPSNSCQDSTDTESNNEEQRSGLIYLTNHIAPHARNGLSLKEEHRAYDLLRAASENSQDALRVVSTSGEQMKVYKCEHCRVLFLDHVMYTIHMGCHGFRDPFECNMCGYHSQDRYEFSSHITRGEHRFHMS
T2 sequence (Q96SW2 whole entry): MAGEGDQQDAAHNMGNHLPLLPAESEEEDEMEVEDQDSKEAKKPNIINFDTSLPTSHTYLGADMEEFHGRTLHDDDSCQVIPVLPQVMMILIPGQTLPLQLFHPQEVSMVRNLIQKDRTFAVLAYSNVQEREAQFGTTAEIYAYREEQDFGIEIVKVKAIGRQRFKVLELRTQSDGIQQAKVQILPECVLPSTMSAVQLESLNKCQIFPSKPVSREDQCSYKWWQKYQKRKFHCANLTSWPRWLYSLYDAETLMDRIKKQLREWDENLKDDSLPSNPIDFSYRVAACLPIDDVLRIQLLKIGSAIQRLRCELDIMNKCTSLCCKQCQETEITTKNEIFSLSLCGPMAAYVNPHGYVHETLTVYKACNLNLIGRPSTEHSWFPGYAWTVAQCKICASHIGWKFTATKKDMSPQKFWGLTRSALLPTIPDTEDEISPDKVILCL
T2 sequence (Q16531 whole entry partner): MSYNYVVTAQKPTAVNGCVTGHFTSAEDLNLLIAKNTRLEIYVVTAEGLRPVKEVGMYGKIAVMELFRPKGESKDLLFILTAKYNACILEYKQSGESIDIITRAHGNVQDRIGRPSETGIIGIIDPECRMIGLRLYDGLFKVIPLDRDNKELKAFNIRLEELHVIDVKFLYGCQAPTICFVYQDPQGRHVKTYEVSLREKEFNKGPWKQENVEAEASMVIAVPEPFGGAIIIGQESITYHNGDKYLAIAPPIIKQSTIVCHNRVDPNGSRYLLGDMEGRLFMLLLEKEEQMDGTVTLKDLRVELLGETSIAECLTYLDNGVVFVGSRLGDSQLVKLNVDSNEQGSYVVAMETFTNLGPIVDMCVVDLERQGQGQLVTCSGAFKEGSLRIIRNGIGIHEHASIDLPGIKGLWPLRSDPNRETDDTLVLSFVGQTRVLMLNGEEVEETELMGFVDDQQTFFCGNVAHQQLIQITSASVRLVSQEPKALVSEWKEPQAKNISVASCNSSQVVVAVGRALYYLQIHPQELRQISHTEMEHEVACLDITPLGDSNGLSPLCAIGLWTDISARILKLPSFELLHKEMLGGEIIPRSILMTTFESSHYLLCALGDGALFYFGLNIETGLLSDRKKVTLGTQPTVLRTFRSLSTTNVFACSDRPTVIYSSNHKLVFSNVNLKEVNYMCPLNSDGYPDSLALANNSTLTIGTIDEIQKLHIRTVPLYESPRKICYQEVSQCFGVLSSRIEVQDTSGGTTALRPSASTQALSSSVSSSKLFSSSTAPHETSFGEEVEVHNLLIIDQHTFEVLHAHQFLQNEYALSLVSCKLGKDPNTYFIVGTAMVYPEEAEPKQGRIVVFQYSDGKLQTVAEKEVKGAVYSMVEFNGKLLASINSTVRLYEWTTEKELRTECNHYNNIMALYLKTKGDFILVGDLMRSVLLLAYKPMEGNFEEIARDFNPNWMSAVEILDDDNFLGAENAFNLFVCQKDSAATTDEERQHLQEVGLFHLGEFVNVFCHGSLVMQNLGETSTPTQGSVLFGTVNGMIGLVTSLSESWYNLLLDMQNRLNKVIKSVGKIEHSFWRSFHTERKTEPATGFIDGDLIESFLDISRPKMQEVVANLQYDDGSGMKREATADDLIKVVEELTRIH
Method: (§1) Objective: The experiment was conducted to evaluate the degradation effects of test compounds on IKZF1 and IKZF3 proteins in MM.1S cells by detecting their impact on the expression levels of IKZF1 and IKZF3 proteins in MM.1S cells.
(§2) Cell line: MM.1S cell (obtained from ATCC; Cat. No. CRL-2974)
(§3) Negative control: 0.1% DMSO Table 4. Reagents and consumables
(§4) Experimental scheme: • 1) MM.1S cells in the logarithmic growth phase were seeded into a 96-well plate at 1.2 × 10^5 cells per well and cultured overnight. • 2) On the second day, drug treatment was initiated with a starting concentration of 300 nM, followed by a 3-fold dilution in triplicate wells, with 10 concentration gradients (containing DMSO), and incubated for 24 hours in a culture incubator. • 3) The mixture was centrifuged, and the cell supernatant was carefully removed. […]
(§5) GraphPad Prism 6 software was utilized to fit the curve with the inhibition rate data, and the DC50 value was calculated.

[3] = molecular target: T3, IKZF3 (Homo sapiens, UniProt Q96SW2+Q9UKT9); assay: In cell western analysis of IKZF3 protein expression level in MM.1S cells; settings: IKZF3, MM.1S cells, 24 hours
T3 construct: expression levels of IKZF1 and IKZF3 proteins in MM.1S cells; host or cells: MM.1S cells
T3 sequence (Q9UKT9 whole entry): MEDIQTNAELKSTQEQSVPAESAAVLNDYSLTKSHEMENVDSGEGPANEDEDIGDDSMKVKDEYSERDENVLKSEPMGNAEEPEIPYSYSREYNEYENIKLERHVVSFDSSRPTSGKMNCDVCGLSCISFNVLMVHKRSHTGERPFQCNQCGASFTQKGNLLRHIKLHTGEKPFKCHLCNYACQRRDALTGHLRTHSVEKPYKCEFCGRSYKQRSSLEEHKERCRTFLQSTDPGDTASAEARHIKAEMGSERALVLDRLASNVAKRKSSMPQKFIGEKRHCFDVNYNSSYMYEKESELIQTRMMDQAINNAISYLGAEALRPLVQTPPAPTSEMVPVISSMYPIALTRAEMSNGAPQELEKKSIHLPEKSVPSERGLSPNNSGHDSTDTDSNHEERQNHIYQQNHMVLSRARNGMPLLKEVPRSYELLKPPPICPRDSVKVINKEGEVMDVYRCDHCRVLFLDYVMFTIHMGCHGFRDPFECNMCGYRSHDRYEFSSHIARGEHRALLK
T3 sequence (Q96SW2 whole entry): as the sequence (Q96SW2 whole entry) above
T3 sequence (Q16531 whole entry partner): as the sequence (Q16531 whole entry partner) above
Method: as §1, §2, §3, §4, §5

Work on `O=C1CCC(c2noc3ccc4c(NC(=O)CN5CCN(C[C@H]6CC[C@H](n7cc(NC(=O)c8coc(-c9ccnc(NCC%10CC%10)c9)n8)c(C(F)F)n7)CC6)CC5)cccc4c23)C(=O)N1` (stereo partly drawn) [Hydrochloride of Compound of Formula (I)] yielded a DC50 [1] of 4.87 nM, a DC50 [2] of 23.4 nM and a DC50 [3] of 20.6 nM.
